From article PMC10115881, “Disrupting the α-synuclein-ESCRT interaction with a peptide inhibitor mitigates neurodegeneration in preclinical models of Parkinson’s disease” (Nature Communications, 2023) come the findings set out here.

Format in all cases: cell-based, human
Test [1] concerns WT a-syn-mediated cytotoxicity in HEK293 cells. The test can be described thus: Pooled lentiviral 7-mer peptide cytotoxicity screen, WT a-syn + MG132.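 For Slope Norm Reads: reads normalized to total peptide reads per sample with scalar factor.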 Particulars: for Reads 0M MG132: Illumina reads, average Phred >30. The source says:
(§1) We used a lentiviral library of 50,549 7-mer peptides enriched in PPI motifs[13] on a green fluorescent protein (GFP) scaffold (Fig. 1A). We infected cells in a pooled format and the amino acid sequence of each peptide served as its own barcode. By using a low multiplicity of infection followed by puromycin selection, each infected cell expressed one unique GFP-peptide. We screened for peptides that reduced a-syn-mediated cytotoxicity or a-syn oligomers in parallel (Fig. 1A). To cause cytotoxicity relevant to PD, we induced proteostatic stress in HEK293 cells by inhibiting the proteasome with MG132 and overexpressing human WT a-syn associated with idiopathic PD in one screen or the more toxic mutant A53T a-syn associated with familial PD in a second screen. This combination of a-syn overexpression and pharmacological proteasome inhibition led to death of most cells, with only those that expressed a protective peptide surviving. By extracting genomic DNA from the surviving cells and amplifying the peptide coding sequences, we identified the protective peptides (Fig. 1A). To detect a-syn oligomers, we used a protein fragment complementation assay (PCA) of a-syn oligomerization in HEK293 cells. In this assay, human A53T a-syn was fused to either the C- or N-terminal half of yellow fluorescent protein (YFP). No fluorescence is detectable while a-syn exists in monomers but, when a-syn oligomerizes, the two halves of YFP come in close enough proximity to form a functional, spontaneously fluorescent protein. […] Our screens yielded 10 hits (Table S1). The hit with the most reads (i.e., the most abundant) was the same peptide in all screens: IPIQLKA (named PDpep1) (Table S1). We validated the cytoprotective effects of PDpep1 in HEK293 cells overexpressing WT or A53T a-syn (Figs. 1B, S1A), as well as its ability to reduce WT or A53T a-syn oligomers in a luciferase-based PCA[18]–[20] compared to a scrambled control peptide (Figs. 1C, S1B).
(§2) HEK293T cells (ATCC, CRL-3216) were maintained in DMEM supplemented with 10% FBS and 1% pen/strep/glutamine, and the appropriate selection antibiotics when required. Lentiviruses were made in a 15 cm dish format by transfecting packaging cells (HEK293T) with a three-plasmid system (expression vector, psPAX2 and pMD2.G) and using Polyjet DNA transfection reagent (FroggaBio, SL100688.1). Viral transduction of HEK293T cells were performed with a multiplicity of infection (MOI) of 0.3. Infected cells were selected in puromycin-containing medium to eliminate uninfected cells and three aliquots of cells were collected for sampling of the initial (T0) cell population. Cells were treated with MG132 at concentrations of 0, 10, 25, or 50 µM. For the cell viability screen, surviving cells were collected and gDNA was extracted for identification of peptide inhibitors of cell toxicity. For the inhibition of a-syn aggregation screen, a protein fragment complementation assay (PCA) was used by transfecting cells with split YFP-a-syn constructs following stable expression of the peptides. Cells were sorted based on their YFP fluorescence intensities with a FACSVantage SE cell sorter (BD Bioscience) and gDNA was extracted for identification of peptides.
(§3) Genomic DNA (gDNA) from peptide expressing cells at different time-points was extracted using QIAamp DNA Blood Mini Kit. PCR amplifications of peptides from gDNA in parallel with the lentiviral plasmid library (naïve library) were performed using indexed Illumina PCR primers to incorporate both the Illumina adapter sequences and indexing sequences. Each 50 μl reaction contained 3.2 μg of template, 2× PCR buffer, 2× enhancer solution, 300 μM each dNTP, 900 nM each of Adapter A (5′-[…]-[…]-3′) and Adapter B (5′-[…]-[…]-3′), 1 mM MgSO4, 3.75 units of Platinum Pfx polymerase, and water to 50 μl. […]

Another test deals with A53T a-syn oligomers. The test can be described thus: Split-YFP PCA/FACS screen of A53T a-syn oligomers.
Source text: as §1, §2
Cells were harvested by trypsin treatment and centrifuged at 500 × g for 5 min. The pellet was resuspended in ice-cold PBS and centrifuged again. The pellet was then resuspended at a concentration of 4 × 10^6 cells/ml in the sorting buffer, which is PBS containing 100 Kunitz DNase I/ml, 10 μg/ml propidium iodide (Sigma), and 2% FBS. The cells were then sent through a 40 μm filter to remove large clumps and loaded into either a FACScan Flow Cytometer (BD Bioscience) for cell analysis or a FACSVantage SE cell sorter (BD Bioscience) for cell sorting. The cells with positive propidium iodide staining (i.e., dead cells) were first eliminated from the analysis. […]

The subject of test [2] is A53T a-syn expressing HEK293 cells. The test can be described thus: Cell Titer-Glo cell viability, A53T a-syn expressing cells. To be noted: A53T a-syn cells. The method, then: Oligonucleotides encoding the specific peptides were synthesized and individually cloned into the pLJM1 nGFP lentiviral vector. HEK293T cells were infected with individual constructs, and cell viability was assessed using Cell Titer-Glo luminescent assay (Promega) at 72 h post infection.
Cells were trypsinized from subconfluent cultures as described earlier, suspended in culture media, and then seeded into triplicate wells of a 96-well plate (100 µl/well) at a density of 1.5 × 10^4 cells per well with standard culture conditions of 5% CO2 at 37 °C. Cells were infected with lentivirus expressing peptide at a MOI of 5 for 72 h or transfected with plasmid for 72 h. Cell Titer-Glo reagent was added to each well (30 µL), according to the manufacturer’s protocol and […].
On the technique in general: Cellular ATP, detected with luciferase, serves as a proxy for viable cell number.

Test [3] has as its system A53T a-syn-mediated cytotoxicity in HEK293 cells. Kind of test: Pooled lentiviral 7-mer peptide cytotoxicity screen, A53T a-syn + MG132.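 For Slope Norm Reads: reads normalized to total peptide reads per sample with scalar factor.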 To be noted: for Reads 0M MG132: Illumina reads, average Phred >30.
Source text: as §1, §2, §3

Turning to AAYNLCA [library 7-mer, WT screen], in test [1], the “Reads 10M MG132” value turned out to be 14, the “Reads 25M MG132” value is 19, the “Slope Norm Reads” value amounted to 0.07 and the “Reads 0M MG132” value is 1.

“CFLFQIQ [library 7-mer, oligomers screen]”: in the test with A53T a-syn oligomers, the “Reads GFP High” value amounted to 1, the “Reads GFP Inter” value was determined as 0, the “Reads GFP Neg” value turned out to be 88 and the “Reads Ratio” value stood at 45.32.

For the substance “CHMP2B 1-178: shorter truncated version of CHMP2B (amino acids 1–178), implicated in FTD”, the “Effect on cell survival/viability” value in test [2] is “increased toxicity”.

With CKYRSVL [library 7-mer, A53T screen], in test [3], the “Reads 10M MG132” value amounted to 7, the “Reads 25M MG132” value is recorded as 11, the “Reads 50M MG132” value was 438 and the “Slope Norm Reads” value is on record as 1.30. Further, the “Reads 0M MG132” value in test [3] is on record as 5.

In the case of CMVHSAG [library 7-mer, WT screen], in test [1], the “Reads 10M MG132” value is on record as 14, the “Reads 25M MG132” value is 33, the “Slope Norm Reads” value came to 0.08 and the “Reads 0M MG132” value came out at 4.

Consider DWLMVNL [library 7-mer, WT screen], for which, in test [1], the “Reads 10M MG132” value is on record as 13, the “Reads 25M MG132” value is given as 29, the “Slope Norm Reads” value is recorded as 0.13 and the “Reads 0M MG132” value turned out to be 1.

With “ECHTKIR [library 7-mer, oligomers screen]”, in the test on A53T a-syn oligomers, the “Reads GFP High” value was 1, the “Reads GFP Inter” value is 0, the “Reads GFP Neg” value amounted to 76 and the “Reads Ratio” value turned out to be 39.21.

Take EDVNKCV [library 7-mer, A53T screen]: in test [3], the “Reads 10M MG132” value is recorded as 6, the “Reads 25M MG132” value was found to be 13, the “Reads 50M MG132” value is reported as 233 and the “Slope Norm Reads” value is on record as 0.68. In addition, in test [3], the “Reads 0M MG132” value is on record as 6.

For the substance GAAAGGT [library 7-mer, WT screen], in test [1], the “Reads 10M MG132” value stood at 10, the “Reads 25M MG132” value turned out to be 17, the “Slope Norm Reads” value was found to be 0.06 and the “Reads 0M MG132” value is 1.

Regarding GWTTVRR [library 7-mer, A53T screen], in test [3], the “Reads 10M MG132” value worked out at 1, the “Reads 25M MG132” value was determined as 29, the “Reads 50M MG132” value was determined as 322 and the “Slope Norm Reads” value amounted to 0.94. Besides, the “Reads 0M MG132” value in test [3] was determined as 15.

For “LKRDQPV [library 7-mer, oligomers screen]”, in the test with A53T a-syn oligomers, the “Reads GFP High” value is 3, the “Reads GFP Inter” value is reported as 0, the “Reads GFP Neg” value came out at 118 and the “Reads Ratio” value came to 30.30.

As for LPASMPC [library 7-mer, WT screen], in test [1], the “Reads 10M MG132” value is reported as 16, the “Reads 25M MG132” value amounted to 27, the “Slope Norm Reads” value was determined as 0.09 and the “Reads 0M MG132” value worked out at 2.

With “LPSKIYK [library 7-mer, oligomers screen]”, in the test on A53T a-syn oligomers, the “Reads GFP High” value was found to be 1, the “Reads GFP Inter” value was 0, the “Reads GFP Neg” value is 57 and the “Reads Ratio” value worked out at 29.53.

Turning to LQVGVAV [library 7-mer, WT screen], in test [1], the “Reads 10M MG132” value was 25, the “Reads 25M MG132” value stood at 23, the “Slope Norm Reads” value turned out to be 0.09 and the “Reads 0M MG132” value is recorded as 1.

With LSGECVP [library 7-mer, WT screen], in test [1], the “Reads 10M MG132” value came to 28, the “Reads 25M MG132” value worked out at 28, the “Slope Norm Reads” value was determined as 0.07 and the “Reads 0M MG132” value came out at 3.

For “MQMKLSQ [library 7-mer, oligomers screen]”, in the test on A53T a-syn oligomers, the “Reads GFP High” value was determined as 1, the “Reads GFP Inter” value is listed as 0, the “Reads GFP Neg” value amounted to 70 and the “Reads Ratio” value is reported as 36.15.

Regarding “NNQYSFV [library 7-mer, oligomers screen]”, in the test with A53T a-syn oligomers, the “Reads GFP High” value is on record as 1, the “Reads GFP Inter” value stood at 0, the “Reads GFP Neg” value came out at 58 and the “Reads Ratio” value turned out to be 30.04.

Regarding PAMQIDG [library 7-mer, A53T screen], in test [3], the “Reads 10M MG132” value worked out at 20, the “Reads 25M MG132” value is recorded as 53, the “Reads 50M MG132” value is on record as 337 and the “Slope Norm Reads” value came out at 0.96. For the same substance, the “Reads 0M MG132” value in test [3] amounted to 32.

In the case of PLPTGMG [library 7-mer, WT screen], in test [1], the “Reads 10M MG132” value is 3, the “Reads 25M MG132” value turned out to be 20, the “Slope Norm Reads” value was 0.08 and the “Reads 0M MG132” value is given as 1.

For the substance QAELSNS [library 7-mer, A53T screen], in test [3], the “Reads 10M MG132” value turned out to be 8, the “Reads 25M MG132” value is listed as 10, the “Reads 50M MG132” value is listed as 235 and the “Slope Norm Reads” value was 0.69. Further, the “Reads 0M MG132” value in test [3] came to 6.

Consider QSPSSAW [library 7-mer, A53T screen], for which, in test [3], the “Reads 10M MG132” value is recorded as 45, the “Reads 25M MG132” value came to 59, the “Reads 50M MG132” value is 284 and the “Slope Norm Reads” value is recorded as 0.82. Besides, the “Reads 0M MG132” value in test [3] stood at 9.

Consider QSVLQQV [library 7-mer, A53T screen], for which, in test [3], the “Reads 10M MG132” value is on record as 2, the “Reads 25M MG132” value turned out to be 12, the “Reads 50M MG132” value is on record as 282 and the “Slope Norm Reads” value stood at 0.82. In addition, the “Reads 0M MG132” value in test [3] is 13.

Consider QSVVTAP [library 7-mer, A53T screen], for which, in test [3], the “Reads 10M MG132” value was 6, the “Reads 25M MG132” value stood at 37, the “Reads 50M MG132” value is reported as 465 and the “Slope Norm Reads” value worked out at 1.38. Also, the “Reads 0M MG132” value in test [3] turned out to be 8.

As for QVSVAQQ [library 7-mer, A53T screen], in test [3], the “Reads 10M MG132” value is given as 13, the “Reads 25M MG132” value is reported as 120, the “Reads 50M MG132” value came out at 246 and the “Slope Norm Reads” value stood at 0.69. Besides, the “Reads 0M MG132” value in test [3] came out at 45.

RAPSCHL [library 7-mer, WT screen]: in test [1], the “Reads 10M MG132” value is listed as 13, the “Reads 25M MG132” value was determined as 33, the “Slope Norm Reads” value amounted to 0.15 and the “Reads 0M MG132” value was 1.

Turning to “TQKRELT [library 7-mer, oligomers screen]”, in the test with A53T a-syn oligomers, the “Reads GFP High” value turned out to be 1, the “Reads GFP Inter” value was 0, the “Reads GFP Neg” value is 69 and the “Reads Ratio” value is listed as 35.64.
